The results in this text go back to patent US20150259331A1, “PROTOZOAN PARASITE GROWTH INHIBITORS” (Northeastern University, priority 2014, published 2015).

Where two headings read alike, the source gives them in different places. Some results are limits rather than exact numbers.

Data set [1] concerns T. brucei brucei Lister 427. The experiment in a line: Trypanosome replication assay. Format: cell-based, Trypanosoma brucei brucei. The settings on record: Trypanosoma brucei, 48 h, 48 h, values ±7%.
Data set [2] relates to HepG2 cells. The data set can be described thus: HepG2 cell toxicity (MTT) assay. The class given is cell-based. The settings on record: Table 13; read-out: HepG2 TC50.
Data set [3] deals with T. cruzi. The experiment in a line: T. cruzi growth inhibition. Format: cell-based, Trypanosoma cruzi. The settings on record: Trypanosoma cruzi.
In data set [4] the test system is L. major promastigote. The data set can be described thus: L. major promastigote assay. The class given is cell-based. The settings on record: Leishmania major.
The subject of data set [5] is L. major amastigote. The experiment in a line: L. major amastigote assay. Format: cell-based. The settings on record: Leishmania major.
For data set [6], the system named is P. fal. The experiment in a line: P. fal assay of Table 13 (strain not given). The class given is cell-based, P. falciparum. Conditions: Plasmodium falciparum.
Where [7] appears, read: concentration giving 50% inhibition of growth of T brucei brucei Lister 427 cells, read-out: Tbb EC50.

With `CN1CCCN(S(=O)(=O)c2ccc(-c3ccc4c(Nc5ccc(OCc6cccc(F)c6)c(Cl)c5)ccnc4c3)cc2)CC1` [NEU-943, N-(3-Chloro-4-((3-fluorobenzyl)oxy)phenyl)-7-(4-((4-methyl-1,4-diazepan-1-yl)sulfonyl)phenyl)quinolin-4-amine], the EC50 in data set [1] (setting [7]) amounted to 0.087 µM; in data set [3], 0.73 µM; in data set [4], 0.4 µM; in data set [5] it was 0.88 µM; in data set [6], 0.094 µM. The CC50 in data set [2] is 5 µM.

As to `O=S(=O)(c1ccc(-c2ccc3c(Nc4ccc(OCc5ccccc5)c(Cl)c4)nccc3c2)cc1)N1CCOCC1` [NEU-948, N-(4-(Benzyloxy)-3-chlorophenyl)-6-(4-(morpholinosulfonyl)phenyl)isoquinolin-1-amine], the EC50 in data set [1] (setting [7]) is 0.091 µM; in data set [3] it was over 50 µM; in data set [4], over 15 µM; in data set [5] it was over 3 µM; in data set [6] it was 3.4 µM. For the same compound, in data set [2], the CC50 was over 5 µM.

With `CN1CCCN(S(=O)(=O)c2ccc(-c3ccc4nncc(Nc5ccc(OCc6cccc(F)c6)c(Cl)c5)c4c3)cc2)CC1` [NEU-1013, N-(3-Chloro-4-((3-fluorobenzyl)oxy)phenyl)-6-(4-((4-methyl-1,4-diazepan-1-yl)sulfonyl)phenyl)cinnolin-4-amine], the EC50 came out at 0.58 µM in data set [1] (setting [7]); 2.2 µM in data set [3]; 4.1 µM in data set [4]; 1.06 µM in data set [5]; 0.027 µM in data set [6]. The CC50 in data set [2] came out at 7.3 µM.

Turning to `O=S(=O)(c1ccc(-c2ccc3c(Nc4ccc(OCc5ccccc5)c(Cl)c4)nncc3c2)cc1)N1CCOCC1` [NEU-1039, N-(4-(Benzyloxy)-3-chlorophenyl)-6-(4-(morpholinosulfonyl)phenyl)phthalazin-1-amine], the EC50 in data set [1] (setting [7]) was 0.99 µM; in data set [3], over 50 µM; in data set [4], over 15 µM; in data set [5], over 15 µM; in data set [6], 0.11 µM. Moreover, the CC50 in data set [2] was over 15 µM.

`Fc1cccc(COc2ccc(Nc3ccnc4cc(-c5cccc(N6CCOCC6)c5)ccc34)cc2Cl)c1` [NEU-942, N-(3-Chloro-4-((3-fluorobenzyl)oxy)phenyl)-7-(3-morpholinophenyl)quinolin-4-amine]: the EC50 in data set [1] (setting [7]) is 1.2 µM; in data set [3], 2.7 µM; in data set [4], 1.4 µM; in data set [5], over 3 µM; in data set [6], 0.061 µM. Further, the CC50 in data set [2] is over 5 µM.

For the compound `O=S(=O)(c1ccc(-c2ccc3nncc(Nc4ccc(OCc5ccccc5)c(Cl)c4)c3c2)cc1)N1CCOCC1` [NEU-1002, N-(4-(Benzyloxy)-3-chlorophenyl)-6-(4-(morpholinosulfonyl)phenyl)cinnolin-4-amine], the EC50 in data set [1] (setting [7]) is 1.2 µM; in data set [3], over 50 µM; in data set [4] it was over 15 µM; in data set [5], over 15 µM; in data set [6] it was 0.82 µM. The CC50 in data set [2] was over 15 µM.

Consider `CN1CCN(S(=O)(=O)c2ccc(-c3ccc4cnnc(Nc5ccc(OCc6cccc(F)c6)c(Cl)c5)c4c3)cc2)CC1` [NEU-1043, N-(3-Chloro-4-((3-fluorobenzyl)oxy)phenyl)-7-(4-((4-methylpiperazin-1-yl)sulfonyl)phenyl)phthalazin-1-amine, Formic Acid], for which the EC50 in data set [1] (read-out: Tbb EC50, concentration giving 50% inhibition of growth of T brucei brucei Lister 427 cells) was 2 µM; in data set [3], over 50 µM; in data set [4] it was over 3.2 µM; in data set [5] it was over 4 µM; in data set [6], 0.13 µM. Also, in data set [2], the CC50 is over 5 µM.

In the case of `CN1CCN(S(=O)(=O)c2ccc(-c3ccc4nncc(Nc5ccc(OCc6cccc(F)c6)c(Cl)c5)c4c3)cc2)CC1` [NEU-1003, N-(3-Chloro-4-((3-fluorobenzyl)oxy)phenyl)-6-(4-((4-methylpiperazin-1-yl)sulfonyl)phenyl)cinnolin-4-amine], the EC50 in data set [1] (setting [7]) is 0.98 µM; in data set [3] it was over 50 µM; in data set [4] it was over 15 µM; in data set [5], 1.9 µM; in data set [6], 0.13 µM.
